What is called GI50 is the concentration at which growth is held to half of that of the control.

For series [1], the system named is UACC-62. Description: NCI-60 human tumor cell line screen, melanoma UACC-62. As to conditions: read-out: cytotoxicity (GI50) melanoma UACC-62; 50% growth inhibition.
For series [2], the system named is MCF-7. Briefly: NCI-60 human tumor cell line screen, breast MCF-7. The note with it: read-out: cytotoxicity (GI50) breast MCF-7; 50% growth inhibition.
Series [3] addresses T1, recombinant Top1 (Homo sapiens, UniProt P11387).
T1 sequence (P11387 1-765): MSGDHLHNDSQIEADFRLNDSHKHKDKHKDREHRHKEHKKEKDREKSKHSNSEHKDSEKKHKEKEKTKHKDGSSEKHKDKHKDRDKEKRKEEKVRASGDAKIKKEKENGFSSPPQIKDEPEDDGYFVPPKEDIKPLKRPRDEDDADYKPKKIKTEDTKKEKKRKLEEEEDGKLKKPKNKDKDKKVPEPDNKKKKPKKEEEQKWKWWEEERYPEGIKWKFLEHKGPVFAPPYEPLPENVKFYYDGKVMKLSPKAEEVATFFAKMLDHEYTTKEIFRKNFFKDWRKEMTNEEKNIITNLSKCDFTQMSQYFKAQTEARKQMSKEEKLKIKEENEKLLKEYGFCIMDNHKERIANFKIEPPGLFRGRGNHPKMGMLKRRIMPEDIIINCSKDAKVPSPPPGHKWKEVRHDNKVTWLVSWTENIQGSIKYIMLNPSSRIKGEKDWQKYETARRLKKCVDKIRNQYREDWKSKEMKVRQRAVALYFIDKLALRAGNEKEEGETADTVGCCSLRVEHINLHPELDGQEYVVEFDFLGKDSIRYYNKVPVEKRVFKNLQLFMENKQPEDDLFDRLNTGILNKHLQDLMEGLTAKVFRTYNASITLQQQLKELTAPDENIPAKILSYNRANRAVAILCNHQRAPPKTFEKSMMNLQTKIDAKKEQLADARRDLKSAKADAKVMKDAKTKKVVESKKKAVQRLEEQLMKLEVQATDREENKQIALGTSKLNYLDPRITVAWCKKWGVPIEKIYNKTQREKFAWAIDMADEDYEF
Briefly: Top1-mediated DNA cleavage assay. The series is classed as biochemical. As to conditions: semiquantitative scale relative to 1 μM MJ-III-65 (6) and 1 μM camptothecin (1).

Series [4] concerns OVCAR-3. Briefly: NCI-60 human tumor cell line screen, ovarian OVCAR-3. The note with it: read-out: cytotoxicity (GI50) ovarian OVCAR-3; 50% growth inhibition.
Series [5] concerns SF-539. Briefly: NCI-60 human tumor cell line screen, CNS SF-539. As to conditions: read-out: cytotoxicity (GI50) CNS SF-539; 50% growth inhibition.
The test system of series [6] is HOP-62. Briefly: NCI-60 human tumor cell line screen, lung HOP-62. As to conditions: read-out: cytotoxicity (GI50) lung HOP-62; 50% growth inhibition.
The test system of series [7] is DU-145. Description: NCI-60 human tumor cell line screen, prostate DU-145. The note with it: read-out: cytotoxicity (GI50) prostate DU-145; 50% growth inhibition.
The test system of series [8] is SN12C. Briefly: NCI-60 human tumor cell line screen, renal SN12C. As to conditions: read-out: cytotoxicity (GI50) renal SN12C; 50% growth inhibition.
Series [9] concerns HCT-116. Description: NCI-60 human tumor cell line screen, colon HCT-116. The note with it: read-out: cytotoxicity (GI50) colon HCT-116; 50% growth inhibition.
The test system of series [10] is zebrafish embryos. The note with it: statistical comparison of 9, 16b and 17b.

As to `O=C1c2ccccc2-c2c1c1ccc([N+](=O)[O-])cc1c(=O)n2CCCn1ccnc1` [compound 7], the GI50 in [1] was found to be 12 nM; in series [2], 2170 nM; in [4], 864 nM; in [5], 16 nM; in series [6], 190 nM; in series [7], 17 nM. The GI50 in series [8] came to 15 nM; in series [9] it was 274 nM. Besides, in [3], the “enzyme inhibitory activity Top1 (compound-induced DNA cleavage score)” value (“enzyme inhibitory activity Top1” for short) was “++++”.

In the case of `COc1cnc2c(c1)C(=O)c1c-2n(CCCn2ccnc2)c(=O)c2cc(Cl)ccc12` [compound 16b, 3-Chloro-6-(3-(1H-Imidazol-1-yl)propyl)-9-methoxy-5H-pyrido[3′,2′:4,5]cyclopenta[1,2-c]isoquinoline-5,11(6H)-dione], in [3], the “enzyme inhibitory activity Top1” value was “+++”. Also, the “lethality in zebrafish (comparison between compounds)” value in [10] is listed as “lethality difference between them is not significant”.

`COc1cnc2c(c1)C(=O)c1c-2n(CCCNC2=NCCS2)c(=O)c2cc(Cl)ccc12` [compound 16c, 3-Chloro-6-(3-((4,5-dihydrothiazol-2-yl)amino)propyl)-9-methoxy-5H-pyrido[3′,2′:4,5]cyclopenta[1,2-c]isoquinoline-5,11(6H)-dione]: the “enzyme inhibitory activity Top1” value in series [3] is “++”. `COc1cnc2c(c1)C(=O)c1c-2n(CCCN2CCNCC2)c(=O)c2cc(Cl)ccc12` [16e, 3-Chloro-9-methoxy-6-(3-(piperazin-1-yl)propyl)-5H-pyrido[3′,2′:4,5]cyclopenta[1,2-c]isoquinoline-5,11(6H)-dione]: the “enzyme inhibitory activity Top1” value in [3] was “+”. Still for that read-out and setting: then `COc1cnc2c(c1)C(=O)c1c-2n(CCCNC(C)C)c(=O)c2cc(F)ccc12` [17f, 3-Fluoro-6-(3-(isopropylamino)propyl)-9-methoxy-5H-pyrido[3′,2′:4,5]cyclopenta[1,2-c]isoquinoline-5,11(6H)-dione], with “++”. On the same count and under the same terms, then `COc1cnc2c(c1)C(=O)c1c-2n(CCCNC(C)C)c(=O)c2cc(Cl)ccc12` [16f, 3-Chloro-9-methoxy-6-(3-(isopropylamino)propyl)-5H-pyrido[3′,2′:4,5]cyclopenta[1,2-c]isoquinoline-5,11(6H)-dione], with “++”; and `COc1cnc2c(c1)C(=O)c1c-2n(CCCNC2=NCCS2)c(=O)c2cc(F)ccc12` [17c, 3-Fluoro-6-(3-((4,5-dihydrothiazol-2-yl)amino)propyl)-9-methoxy-5H-pyrido[3′,2′:4,5]cyclopenta[1,2-c]isoquinoline-5,11(6H)-dione], with “++”. Same read-out and setting: the same measure for `COc1cnc2c(c1)C(=O)c1c-2n(CCCN2CCN(C)CC2)c(=O)c2cc(Cl)ccc12` [compound 16j, 3-Chloro-9-methoxy-6-(3-(4-methylpiperazin-1-yl)propyl)-5H-pyrido[3′,2′:4,5]cyclopenta[1,2-c]isoquinoline-5,11(6H)-dione]: “+”; for `COc1cnc2c(c1)C(=O)c1c-2n(CCCN2CCC(O)CC2)c(=O)c2cc(F)ccc12` [17d, 3-Fluoro-6-(3-(4-hydroxypiperidin-1-yl)propyl)-9-methoxy-5H-pyrido[3′,2′:4,5]cyclopenta[1,2-c]isoquinoline-5,11(6H)-dione]: “+”. For `COc1cnc2c(c1)C(=O)c1c-2n(CCCN2CCOCC2)c(=O)c2cc(Cl)ccc12` [compound 16a, 3-Chloro-9-methoxy-6-(3-morpholinopropyl)-5H-pyrido[3′,2′:4,5]cyclopenta[1,2-c]isoquinoline-5,11(6H)-dione], the “enzyme inhibitory activity Top1” value in series [3] is “+++”.

`CNCCCn1c2c(c3ccc(F)cc3c1=O)C(=O)c1cc(OC)cnc1-2` [17g, 3-Fluoro-9-methoxy-6-(3-(methylamino)propyl)-5H-pyrido[3′,2′:4,5]cyclopenta[1,2-c]isoquinoline-5,11(6H)-dione]: the “enzyme inhibitory activity Top1” value in series [3] was “+”.

For the molecule `COc1cnc2c(c1)C(=O)c1c-2n(CCCN2CCNCC2)c(=O)c2cc(F)ccc12` [17e, 3-Fluoro-9-methoxy-6-(3-(piperazin-1-yl)propyl)-5H-pyrido[3′,2′:4,5]cyclopenta[1,2-c]isoquinoline-5,11(6H)-dione], in series [3], the “enzyme inhibitory activity Top1” value is reported as “+”. Consider `CC[C@@]1(O)C(=O)OCc2c1cc1n(c2=O)Cc2cc3ccccc3nc2-1` [compound 1, camptothecin], for which the “enzyme inhibitory activity Top1” value in series [3] is “++++”. As to `CCNCCCn1c2c(c3ccc(F)cc3c1=O)C(=O)c1cc(OC)cnc1-2` [17h, 6-(3-(Ethylamino)propyl)-3-fluoro-9-methoxy-5H-pyrido[3′,2′:4,5]cyclopenta[1,2-c]isoquinoline-5,11(6H)-dione], the “enzyme inhibitory activity Top1” value in series [3] is on record as “++”.

Regarding `COc1cnc2c(c1)C(=O)c1c-2n(CCCN2CCC(O)CC2)c(=O)c2cc(Cl)ccc12` [compound 16d, 3-Chloro-6-(3-(4-hydroxypiperidin-1-yl)propyl)-9-methoxy-5H-pyrido[3′,2′:4,5]cyclopenta[1,2-c]isoquinoline-5,11(6H)-dione], in [3], the “enzyme inhibitory activity Top1” value is “++++”. For the molecule `COc1cnc2c(c1)C(=O)c1c-2n(CCCN2CCOCC2)c(=O)c2cc([N+](=O)[O-])ccc12` [compound 10], the GI50 was found to be 40 nM in [1]; 20 nM in series [2]; 110 nM in series [4]; 35 nM in series [5]; 51 nM in [6]; 40 nM in series [7]. Besides, the values for the GI50 in [8] and in [9] were 43 nM and 50 nM, respectively. Besides, the “enzyme inhibitory activity Top1” value in [3] is on record as “++++”.

As to `COc1cnc2c(c1)C(=O)c1c-2n(CCCn2ccnc2)c(=O)c2cc(F)ccc12` [compound 17b, 3-Fluoro-6-(3-(1H-imidazol-1-yl)propyl)-9-methoxy-5H-pyrido[3′,2′:4,5]-cyclopenta[1,2-c]isoquinoline-5,11(6H)-dione], in [3], the “enzyme inhibitory activity Top1” value is reported as “+++”. Also, in [10], the “lethality in zebrafish (comparison between compounds)” value is on record as “lethality difference between them is not significant”. Take `COc1cnc2c(c1)C(=O)c1c-2n(CCCN2CCOCC2)c(=O)c2cc(F)ccc12` [17a, 3-Fluoro-9-methoxy-6-(3-morpholinopropyl)-5H-pyrido[3′,2′:4,5]cyclopenta[1,2-c]isoquinoline-5,11(6H)-dione]: in series [3], the “enzyme inhibitory activity Top1” value is “+++”.

Turning to `COc1cnc2c(c1)C(=O)c1c-2n(CCCN2CCCC2)c(=O)c2cc(F)ccc12` [17i, 3-Fluoro-9-methoxy-6-(3-(pyrrolidin-1-yl)propyl)-5H-pyrido[3′,2′:4,5]cyclopenta[1,2-c]isoquinoline-5,11(6H)-dione], in series [3], the “enzyme inhibitory activity Top1” value is “+++”.

The values above are taken from publication PMC8025945 (Journal of medicinal chemistry, 2017).
